According to US10551313B1, “Surface plasmon resonance based mechanical sensing of beating heart cells” (The Florida International University Board of Trustees, priority 2019, dated 2020):

Tested on: living cardiomyocytes
Assay: SPR based sensing of beating (cardiac activity) of cardiomyocytes cultured on the SPR sensing surface
Assay type: cell-based, rat
Conditions: injection of 10 μM, SPR resonance angle shift vs time, compared with control group without injection (FIG. 5)
From the text: In one particular embodiment, rat cardiomyocytes were isolated from neonatal rat hearts from day one through day three and cultured on the SPR sensing surface 100 of the SPR based sensing system. Subsequently, the spontaneous contractions, expansions, or movements of the rat cardiomyocytes under normal living conditions were monitored by using the SPR based sensing system. In an embodiment, the SPR based sensing system can sense the beating characteristics of the living cardiomyocytes after the living cardiomyocytes is stimulated by an injection of a stimulator such as, for example, adenosine triphosphate (ATP). In another embodiment, the SPR based sensing system can sense the beating characteristics of the living cardiomyocytes after the living cardiomyocytes is inhibited by an injection of an inhibitor such as, for example, blebbistatin.

SMILES | cardiac activity (beating frequency) of the cardiomyocytes
Nc1ncnc2c1ncn2[C@@H]1O[C@H](COP(=O)(O)OP(=O)(O)OP(=O)(O)O)[C@@H](O)[C@H]1O [ATP, adenosine triphosphate] | higher cardiac activity (faster beats with frequencies higher than the baseline frequencies)
Cc1ccc2c(c1)C(=O)C1(O)CCN(c3ccccc3)C1=N2 (centres unmarked) [blebbistatin] | lower cardiac activity (slower beats with frequencies lower than the baseline frequencies)
